Patent publication US20230364111A1 (priority 2020, published 2023)
Values after ≈ are worked out from the molar mass of the structure shown. “Also recorded” adds a separate entry of the source. Where two headings read alike, the source gives them in different places.

How the values were obtained:
[1] = system: SARS-CoV-2 TY8-612 (South Africa strain); assay: SARS-CoV-2 TY8-612 strain infection in VeroE6/TMPRSS2 cells; format: cell-based; settings: viral RNA 24 h post-inoculation
Procedure: (§1) FIGS. 12A-12C depict dose-response curves for Oxy232. (FIG. 12A) Secreted viral RNA in the VeroE6 culture supernatant 24 h post-inoculation was quantified by real-time RT-PCR. Cell viability of Oxy232 treated cells evaluated with an MTT assay. (FIG. 12B) Secreted viral RNA of 3 SARS-CoV-2 strains in the VeroE6 culture supernatant 24 h post-inoculation was quantified by real-time RT-PCR. (FIG. 12C) Calu-3 (ATCC) cells were pretreated with Oxy232 for 2 hours prior to continuous infection with SARS-CoV-2 (isolate USA WA1/2020) at MOI=0.5. 48 h post-infection, cells were fixed, immune-strained, and imaged by automated microscopy for infection (dsRNA+ cells/total cell number) and cell number.
(§2) According to a previously published report (Ohashi et al., Identification of Anti-Severe Acute Respiratory Syndrome-Related Coronavirus 2 (SARS-CoV-2) Oxysterol Derivatives In Vitro. Int J Mol Sci. 2021; 22(6):3163. PMCID: PMC8003796) inventors have tested a collection of naturally occurring and semisynthetic oxysterol derivatives in a SARS-CoV-2 cell culture infection assay in VeroE6/TMPRSS2 cells. […] See, Ohashi et al., Int J Mol Sci. 2021; 22(6):3163 and Dittmar et al. Drug repurposing screens reveal cell-type-specific entry pathways and FDA-approved drugs active against SARS-Cov-2. Cell Rep. […] PMCID: PMC7985926. […]

[2] = for Mean Oxy232 Levels in Lung Tissue (ng/g) / Mean Oxy232 Levels in Lung Tissue (μM): oral 200 mg/kg
in vitro [3] = settings: human
SARS-CoV-2 Wk-521 strain = assay: SARS-CoV-2 infection assay, viral RNA in culture supernatant (VeroE6/TMPRSS2 cells); format: cell-based
Hedgehog (Hh) signaling = format: cell-based; settings: 10 μM; NIH3T3 cells with CAPAN-1 conditioned medium containing Shh
in vitro [4] = settings: African green monkey
VeroE6/TMPRSS2 cells = settings: MTT assay; 24 h; VeroE6/TMPRSS2 cells
TGFβ signaling = format: cell-based; settings: 10 μM; NIH3T3 cells stimulated with 20 ng/mL TGFβ
[5] = system: SARS-CoV-2 TY7-501 (Brazil strain); assay: SARS-CoV-2 TY7-501 strain infection in VeroE6/TMPRSS2 cells; format: cell-based; settings: viral RNA 24 h post-inoculation
Procedure: as §1, §2

Calu-3 cells = settings: at higher concentrations; automated microscopy
[6] = system: double-membrane vesicles (DMVs) in SARS-CoV-2-infected cells; assay: Electron microscopy of double-membrane vesicle (DMV) formation; format: cell-based; settings: 10 μM Oxy210, Oxy232 (10 μM)
[7] = system: SARS-CoV-2 (isolate USA WA1/2020); assay: SARS-CoV-2 infection of Calu-3 cells (dsRNA+ cells, automated microscopy); format: cell-based
Procedure: as §1
According to a previously published report (Ohashi et al., Identification of Anti-Severe Acute Respiratory Syndrome-Related Coronavirus 2 (SARS-CoV-2) Oxysterol Derivatives In Vitro. Int J Mol Sci. 2021; 22(6):3163. PMCID: PMC8003796) inventors have tested a collection of naturally occurring and semisynthetic oxysterol derivatives in a SARS-CoV-2 cell culture infection assay in VeroE6/TMPRSS2 cells. […] See, Ohashi et al., Int J Mol Sci. 2021; 22(6):3163 and Dittmar et al. Drug repurposing screens reveal cell-type-specific entry pathways and FDA-approved drugs active against SARS-Cov-2. Cell Rep. […] PMCID: PMC7985926. […] Without wishing to be bound by a theory, biological activities of oxysterols, including measures of cell viability, can heavily depend on in vitro assay conditions, such as the fetal bovine serum concentration or the duration of pretreatment with the compounds, among other factors, that may not translate to the in vivo safety of the compounds.

CC[C@@](O)(CCc1cccnc1)[C@H]1CC[C@H]2[C@@H]3CC[C@H]4C[C@@H](O)CC[C@]4(C)[C@H]3CC[C@]12C [Oxy232, (3S,5S,8R,9S,10S,13S,14S,17S)-17-((R)-3-hydroxy-1-(pyridin-3-yl)pentan-3-yl)-10,13-dimethylhexadecahydro-1H-cyclopenta[a]phenanthren-3-ol]
activity against the TY8-612 strain [1]: undiminished activity | Mean Oxy232 Levels in Lung Tissue (ng/g) ([2]; mice, time 0 h): 0 ng/g | Mean Oxy232 Levels in Lung Tissue (μM) ([2]; mice, time 0 h): 0 µM | Mean Oxy232 Levels in Lung Tissue (ng/g) ([2]; mice, time 0.25 h): 1500 ng/g | Mean Oxy232 Levels in Lung Tissue (μM) ([2]; mice, time 0.25 h): 3.41 µM | Mean Oxy232 Levels in Lung Tissue (ng/g) ([2]; mice, time 0.5 h): 8055 ng/g | Mean Oxy232 Levels in Lung Tissue (μM) ([2]; mice, time 0.5 h): 18.32 µM | Mean Oxy232 Levels in Lung Tissue (ng/g) ([2]; mice, time 1 h): 9427 ng/g | Mean Oxy232 Levels in Lung Tissue (μM) ([2]; mice, time 1 h): 21.44 µM | Mean Oxy232 Levels in Lung Tissue (ng/g) ([2]; mice, time 2 h): 7764 ng/g | Mean Oxy232 Levels in Lung Tissue (μM) ([2]; mice, time 2 h): 17.66 µM | Mean Oxy232 Levels in Lung Tissue (ng/g) ([2]; mice, time 4 h): 2916 ng/g | Mean Oxy232 Levels in Lung Tissue (μM) ([2]; mice, time 4 h): 6.63 µM | Mean Oxy232 Levels in Lung Tissue (ng/g) ([2]; mice, time 8 h): 673 ng/g | Mean Oxy232 Levels in Lung Tissue (μM) ([2]; mice, time 8 h): 1.53 µM | Mean Oxy232 Levels in Lung Tissue (ng/g) ([2]; mice, time 24 h): 122 ng/g | Mean Oxy232 Levels in Lung Tissue (μM) ([2]; mice, time 24 h): 0.28 µM | tolerability of oral dosing ([2]; oral dosing in mice): well tolerated | concentrations in lung tissue homogenate compared to plasma ([2]; single dose 200 mg/kg, mice): generally higher than in plasma | time lung homogenate concentration above Calu-3 IC50 levels ([2]; single dose 200 mg/kg, mice): more than 3.5 h | time lung homogenate concentration above VeroE6 IC50 levels ([2]; single dose 200 mg/kg, mice): 5 h | time plasma concentration above IC50 levels for antiviral activity (VeroE6/TMPRSS2) ([2]; single dose 200 mg/kg, mice): more than 3 hours | CC50 (in vitro [3]): 29.4 µM | viral RNA in the culture supernatant (SARS-CoV-2 Wk-521 strain; 24 h post-inoculation, natural oxysterols up to 30 μM, semi-synthetic up to 15 μM): reduced viral RNA level in a dose-dependent manner | IC50 (SARS-CoV-2 Wk-521 strain; Severe acute respiratory syndrome coronavirus 2, Vero C1008, read-out: IC50 VeroE6 cells (ng/mL)): 2370 ng/mL | IC90 (SARS-CoV-2 Wk-521 strain; Severe acute respiratory syndrome coronavirus 2, Vero C1008, read-out: IC90 VeroE6 cells (ng/mL), Table 6, same value in mass units): 3250 ng/mL | IC50 (SARS-CoV-2 Wk-521 strain; Severe acute respiratory syndrome coronavirus 2, Vero C1008, SARS-CoV-2, VeroE6, read-out: IC50 (VeroE6)): 5.4 µM | IC90 (SARS-CoV-2 Wk-521 strain; Severe acute respiratory syndrome coronavirus 2, Vero C1008, SARS-CoV-2, VeroE6, read-out: IC90 (VeroE6)): 7.8 µM | IC50 (SARS-CoV-2 Wk-521 strain; Severe acute respiratory syndrome coronavirus 2, Vero C1008, Table 6, read-out: IC50 VeroE6 cells): 5.4 µM | IC90 (SARS-CoV-2 Wk-521 strain; Severe acute respiratory syndrome coronavirus 2, Vero C1008, Table 6, read-out: IC90 VeroE6 cells): 7.8 µM | IC90 (SARS-CoV-2 Wk-521 strain; Severe acute respiratory syndrome coronavirus 2, VeroE6/TMPRSS2, 24 h, SARS-CoV-2 viral RNA in culture supernatant, 24 h post-inoculation, VeroE6/TMPRSS2 cells, read-out: IC90): 7.8 µM | IC50 (SARS-CoV-2 Wk-521 strain; Severe acute respiratory syndrome coronavirus 2, SARS-CoV-2 viral RNA in culture supernatant, 24 h post-inoculation, VeroE6/TMPRSS2 cells, read-out: IC50): 5.4 µM | IC90 VeroE6 cells (SARS-CoV-2 Wk-521 strain; Table 6, same value in mass units): 3.429 µg/mL (≈ 7.8 µM) | reduction of viral RNA production at the maximum (SARS-CoV-2 Wk-521 strain; at 15 μM): 99.9% | anti-SARS-CoV-2 activity (SARS-CoV-2 Wk-521 strain; cell-based assay, VeroE6/TMPRSS2): superior anti-SARS-CoV-2 activity; also recorded: anti-SARS-CoV-2 activity comparable to Oxy210; also recorded: significant anti SARS-CoV-2 activity | viral RNA levels in the culture supernatant (SARS-CoV-2 Wk-521 strain; oxysterol derivatives at 10 or 30 uM, 24 h post-inoculation, VeroE6/TMPRSS2): strongly reduced viral RNA levels | SARS-CoV-2 replication (SARS-CoV-2 Wk-521 strain; statement in words): drastically reduced SARS-CoV-2 replication | viral inhibition (SARS-CoV-2 Wk-521 strain; tested in multiple studies, VeroE6/TMPRSS2): greater than 99% | inhibitory activity toward Hh signaling (Gli1 mRNA) (Hedgehog (Hh) signaling): retains inhibitory activity toward Hh signaling | CC50 (in vitro [4]): > 15 µM | CC50 (VeroE6/TMPRSS2 cells): > 15 µM | TGFβ inhibitory properties (CTGF mRNA) (TGFβ signaling): devoid of significant TGFβ pathway inhibitory properties | activity against the TY7-501 strain [5]: undiminished activity | cell viability in Calu-3 cells (Calu-3 cells): do affect cell viability | DMV formation in SARS-CoV-2-infected cells [6]: inhibit DMV formation | IC50 ([7]; Severe acute respiratory syndrome coronavirus 2, Calu-3, read-out: IC50 Calu-3 cells (ng/ml)): 3050 ng/mL | IC90 ([7]; Severe acute respiratory syndrome coronavirus 2, Calu-3, read-out: IC90 Calu-3 cells (ng/ml)): 5920 ng/mL | IC50 ([7]; Severe acute respiratory syndrome coronavirus 2, Calu-3, Table 6, read-out: IC50 Calu-3 cells): 6.9 µM | IC90 ([7]; Severe acute respiratory syndrome coronavirus 2, Calu-3, Table 6, read-out: IC90 Calu-3 cells): 13.5 µM | IC50 ([7]; Severe acute respiratory syndrome coronavirus 2, SARS-CoV-2 USA WA1/2020, MOI=0.5, 48 h post-infection, Calu-3, read-out: IC50 (Calu-3)): 6.9 µM | IC90 ([7]; Severe acute respiratory syndrome coronavirus 2, SARS-CoV-2 USA WA1/2020, MOI=0.5, 48 h post-infection, Calu-3, read-out: IC90 (Calu-3)): 13.5 µM | antiviral activity in Calu-3 human lung epithelial cells ([7]; USA WA1/2020 isolate, at NIAID): confirmed the antiviral activity
